Source: patent US10077433B2, “Permuted and nonpermuted luciferase biosensors” (PROMEGA CORPORATION, priority 2006, dated 2018)

Experiments:
[1] = CPM-FF Luc calcium biosensors, 10 mM CaCl2 or 10 mM EDTA plus 2.5 mM EGTA; format: biochemical; conditions: 10 mM CaCl2 vs 10 mM EDTA plus 2.5 mM EGTA
Method: Calcium biosensors were prepared by fusing sequences encoding a circularly permuted firefly luciferase having engineered N- and C-termini at residues 234 and 233, respectively, to sequences encoding protein domains that bind calcium. One type of calcium biosensor utilized a mutant of fast chicken skeletal muscle troponin C (TnC) (amino acids 15-163; N109D, D111N, N145D, D147N; Genbank NM_205450) [Met-(Luc2.0 234-544)-(Linker X)-(TnC)-(Linker Y)-(Luc2.0 4-233)-Val], and the second type of calcium biosensor utilized human calmodulin (CaM) (amino acids 5-148; Genbank BC005137) [Met-Luc+ (234-544)-(Linker X)-human Calmodulin (5-148)-(Linker Y)-Luc+ (4-233)].
CPM-FF Luc/TnC and CPM-FF Luc/CaM constructs with varying X/Y peptide linker lengths were expressed in vitro using the T7 Coupled Reticulocyte Lysate System (pBFB225, pBFB226, pBFB227, pBFB7; FIG. 24). Reactions were then supplemented with 10 mM CaCl2 or 10 mM EDTA plus 2.5 mM EGTA.

[2] = molecular target: T1, Akt1/PKB alpha recombinant enzyme (Homo sapiens, UniProt P31749); assay: In vitro serine/threonine kinase sensor assay with Akt1/PKB; format: biochemical; conditions: 10 ng Akt1/PKB alpha, 30° C., 20 minutes
T1 construct: purchased Upstate Biotechnology
Method: Constructs pBFB335, 336, 338, 339, 340, 417, 418, 419, 422, 22 and 8 were tested in vitro using TNT® T7 Coupled Reticulocyte Lysate System (Promega Corp.). […] Luminescence was measured using a Turner 20/20N luminometer (Turner Biosystems; 1 second integration time). All samples were measured in triplicate. […]
The protocol for other Serine/Threonine kinase sensors is identical to the one above except that for the CPM hRL Luc samples, 5 μL of sample are added to a 96 well plate+5 μL 2× Renilla lysis buffer without detergents (150 mM HEPES, 100 mM Thiourea) and 100 μL Renilla Assay Reagent (Promega Corp.) is added by injectors using a Veritas Microplate Luminometer and luminescence is measured (Turner Biosystems; Bright-Glo program; 3 second integration time). FF Luc samples are measured by adding 100 μL of Luciferase Assay Reagent (LAR; Promega Corp.), to 5 μL of sample in a 96 well plate, by injectors using a Veritas Microplate Luminometer and luminescence measured (Turner Biosystems; Bright-Glo program; 3 second integration time).

T1 sequence (P31749 whole entry): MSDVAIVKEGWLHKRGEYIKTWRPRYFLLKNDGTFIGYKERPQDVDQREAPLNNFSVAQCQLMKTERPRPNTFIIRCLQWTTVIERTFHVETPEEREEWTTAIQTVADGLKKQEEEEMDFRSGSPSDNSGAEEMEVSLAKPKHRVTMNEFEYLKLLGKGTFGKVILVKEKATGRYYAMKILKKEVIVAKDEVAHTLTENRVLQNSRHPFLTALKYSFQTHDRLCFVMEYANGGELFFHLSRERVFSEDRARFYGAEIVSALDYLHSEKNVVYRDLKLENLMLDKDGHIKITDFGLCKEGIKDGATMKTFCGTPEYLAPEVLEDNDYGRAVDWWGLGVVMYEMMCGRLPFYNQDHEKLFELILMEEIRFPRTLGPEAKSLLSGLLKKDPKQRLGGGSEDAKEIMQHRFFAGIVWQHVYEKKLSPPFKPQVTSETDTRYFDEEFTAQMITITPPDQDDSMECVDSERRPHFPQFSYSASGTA

- decrease in luminescence plus Akt1/PKB as compared to no Akt1/PKB [2]: did not change
Substance: pBFB22: wild-type firefly luciferase control
- fold reduction in luminescence activity in the presence of calcium [1]: No response
